Assays:
[1] = system: L. mexicana axenic amastigotes; experiment: Initial screen, L. mexicana axenic amastigotes, Alamar Blue; format: cell-based, Leishmania mexicana
Method in brief: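 Purified temperate plant natural products from a commercial library (1 mg/mL in DMSO) were tested against Leishmania mexicana axenic amastigotes at a final 2 μM. Parasites were seeded at 1 × 10^6 cells/mL in 96-well plates containing 200 μL culture and incubated 72 h. Growth was measured by Alamar Blue and normalised to DMSO controls (1% v/v), with triplicates over two biological replicates (n = 6).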

[2] = system: T. brucei bloodstream form; experiment: Initial screen, T. brucei bloodstream form, Alamar Blue; format: cell-based, Trypanosoma brucei brucei
Method in brief: (§1)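 Bloodstream-form T. evansi Antat 3/3 and T. brucei Lister 427 were grown in HMI-11 with 10% FBS at 37 °C. Parasites were plated at 1×10^5 cells/mL with compound at 1 μM (T. evansi) or 2 μM (T. brucei) for 48 h, and growth was read by Alamar Blue relative to 1% DMSO controls (n = 6).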

[3] = system: T. evansi bloodstream form; experiment: Initial screen, T. evansi bloodstream form, Alamar Blue; format: cell-based, Trypanosoma evansi; settings: initial screen; compared to a normalised control with same concentration of DMSO solvent
Method in brief: as §1

[4] = system: P. falciparum Dd2Luc intraerythrocytic trophozoites; experiment: Initial screen, intraerythrocytic P. falciparum, Malaria SYBR-Green I fluorescence assay; format: cell-based, Plasmodium falciparum; settings: Plasmodium falciparum, 48 h, read-out: mean % growth, P. falciparum, initial screen; compared to a normalised control with same concentration of DMSO solvent
Method in brief: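 L. mexicana axenic amastigotes at 1 × 10^6 cells/mL exposed 72 h to compounds at 2 μM, growth read by Alamar Blue; P. falciparum trophozoites at 0.5% parasitaemia, 2% haematocrit, 48 h at 2 μM, SYBR-Green I read-out. Growth normalised to 1% DMSO; hits ≥50% growth reduction.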

[5] = system: L. mexicana axenic amastigotes; experiment: Concentration-response EC50, L. mexicana axenic amastigotes (WT); format: cell-based, Leishmania mexicana; settings: read-out: L. mexicana EC50; axenic amastigotes, 72 h
Excerpt: Initial hits from the parasite panel screen were taken forward in log concentration versus normalised response assays to estimate the half maximal effective concentration (EC50) in hit species as well as the half maximal cytotoxic concentrations (CC50) in the human hepatoma cell line HepG2 as a preliminary test for selectivity. Using CC50/EC50 to define the selectivity index (SI), the selectivity for each compound in a defined species compared to a human cell line was estimated and compared to the EC50 (Figure 3).
EC50 values were determined by serial two-fold dilution of each compound in 96 well plates. Culture conditions and viability assays were as stated for the initial screen, with some exceptions. L. mexicana and L. donovani axenic amastigotes were seeded at 2 × 10^6 cell/s mL, T. brucei and T. evansi were seeded at 2 × 10^5 cells/mL. For cytotoxicity studies, HepG2 cells were seeded at 1 × 10^5 cells/mL, incubated for 48 h and viability was assessed using the Alamar Blue assay [66, 67]. […] Normalised growth and viability data (compared to untreated controls) were plotted against Log10 concentration to estimate EC50 in GraphPad (Prism v6).

T. brucei = experiment: Concentration-response EC50, T. brucei; format: cell-based, Trypanosoma brucei brucei; settings: read-out: T. brucei EC50; bloodstream form, 48 h
HepG2 cells [6] = experiment: Cytotoxicity CC50, HepG2, Alamar Blue; settings: read-out: HepG2 CC50; 48 h
Method in brief: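 Human hepatoma cells seeded at 1 × 10^5 cells/mL with two-fold serial compound dilutions, incubated 48 h at 37 °C, 5% CO2 in DMEM/10% FBS. Viability read by Alamar Blue. CC50 estimated from viability normalised to untreated controls versus log concentration.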

[7] = system: activated monocyte cell line (THP-1); experiment: Cytotoxicity CC50, differentiated THP-1, Alamar Blue; format: cell-based, human; settings: differentiated THP-1, 48 h; read-out: THP1 CC50
Excerpt: The four lanosterone-like sterols derived from the Noble Fir Abies procera (700022, 700107, 700136) and the Grand Fir Abies grandis (700240) were the only initial compounds taken forward for L. mexicana due to their nanomolar activity and apparent low cytotoxicity (Figure 3a). […] Understanding the impact of the ring-opened lactone head group in this compound compared to the other three warrants further analysis in exploring their structure-activity relationships. These four sterols were also tested for growth inhibitory activity against L. donovani axenic amastigotes. […] As Leishmania spp. amastigotes typically reside with macrophages, further cytotoxicity assays with these sterols were performed against an activated monocyte cell line (THP-1) (Figure 4b). […]

T. b. rhodesiense = system: T. b. rhodesiense; set-up: method as in PMID 29896963; settings: cited from earlier work
[8] = system: P. falciparum NF54 strain; set-up: method as in PMID 29896963; settings: drug sensitive NF54 strain; cited from earlier work
P. falciparum Dd2Luc = system: P. falciparum Dd2Luc; set-up: method as in PMID 27999014; settings: control compounds; cited from earlier work
HepG2 cells [9] = system: HepG2 cells; set-up: method as in PMID 31617221; settings: cited from earlier work
[10] = initial screen, compared to a normalised control with same concentration of DMSO solvent

## C=C1C(=O)OC2CC(C)C3C=CC(=O)C3(C)C(OC(C)=O)C12 (centres unmarked) [Compound 701154]
[1]; 2 μM, growth inhibited by ≥80%
  initial hit against L. mexicana: initial hits
[1]; Leishmania mexicana, read-out: initial hit L.m
  inhibition of growth at 2 µM: > 80%
[1]; [10]
  mean % growth, L. mexicana: -0.64%
[2]; 2 μM, growth reduced by ≥50%
  initial hit against T. brucei: initial hits
[2]; Trypanosoma brucei, read-out: initial hit T.b
  inhibition of growth at 2 µM: > 50%
[2]; [10]
  mean % growth, T. b. brucei: 14.7%
[3]
  mean % growth, T. evansi: 79.8%
[4]
  activity at 2 µM: 66.5%
[5]
  EC50: 950 nM
T. brucei
  EC50: 1600 nM
HepG2 cells [6]
  CC50: 4200 nM
[7]
  CC50: 1500 nM

## CC(C)c1cc(CC[C@@H]2C(=O)CCCC2(C)C)c(O)cc1O [leriifoliol]
T. b. rhodesiense
  activity against T. b. rhodesiense: micromolar activity
[8]
  activity against P. falciparum: submicromolar activity

## O=C1C(O)=C([C@H]2CC[C@H](c3ccc(Cl)cc3)CC2)C(=O)c2ccccc21 [atovaquone]
P. falciparum Dd2Luc
  rate of kill of control antimalarials: slow killing compound with 48 h lag in action

## COc1cc(C[C@H]2C(=O)OC[C@@H]2Cc2ccc(OC)c(OC)c2)ccc1O [arctigenin]
HepG2 cells [9]
  antiproliferative activity against HepG2 cells: potent antiproliferative activity

## C[C@H]1[C@@H](O)O[C@@H]2O[C@@]3(C)CC[C@H]4[C@H](C)CC[C@@H]1[C@@]24OO3 [dihydroartemisinin]
P. falciparum Dd2Luc
  rate of kill of control antimalarials: rapid initial rate of kill with no lag in action

Reference: article PMC7998250, “Temperate Zone Plant Natural Products—A Novel Resource for Activity against Tropical Parasitic Diseases” (Pharmaceuticals, 2021)
